Columns and labels:
HCV replicon = HCV replicon assay (luciferase); type: cell-based, Hepatitis C virus (HCV); conditions: 5-2 Luc replicon cells, 24 hours with compound, luciferase emission; first symbol of Replicon/Western
Description: In one embodiment, the inhibitory activity of the compounds can be confirmed in a replicon assay that assesses the ability of a test compound to block or inhibit HCV replication in replicon cells. One example of a suitable replicon assay is the liver cell-line Huh 7-based replicon assay described in Lohmann et al., 1999, Science 285:110-113. A specific example of this replicon assay which utilizes luciferase translation is provided in the Examples Section. In one embodiment of this assay, the amount of test compound that yields a 50% reduction in translation as compared to a control cell (IC50) may be determined.
The inhibitory activity of certain exemplary compounds of the invention was confirmed using an HCV replicon assay. The HCV replicon can include such features as the HCV 5′ untranslated region including the HCV IRES, the HCV 3′ untranslated region, selected HCV genes encoding HCV polypeptides, selectable markers, and a reporter gene such as luciferase, GFP, etc. In the assay, actively dividing 5-2 Luc replicon-comprising cells (obtained from Rolf Bartenschlager; see Lohmann et al., 1999, Science 285:110-113) were seeded at a density of between about 5,000 and 7,500 cells/well onto 96 well plates (about 90 μl of cells per well) and incubated at 37° C. and 5% CO2 for 24 hours. Then, the test compound (in a volume of about 10 μl) was added to the wells at various concentrations and the cells were incubated for an additional 24 hours before luciferase assay. The media was aspirated from each well and Bright-Glo (Promega, Madison, Wis.) luciferase assay reagents were added to each well according to the manufacturer's instructions. Briefly, the Bright-Glo reagent was diluted 1:1 with PBS and 100 μl of diluted reagent was added to each well. After 5 min of incubation at room temperature, luciferin emission was quantified with a luminometer. In this assay, the amount of test compound that yielded a 50% reduction in luciferase emission (IC50) was determined.

[1] = test system: HCV nonstructural protein NS5A; experiment: Quantitative Western blot assay; type: cell-based, Hepatitis C virus (HCV); conditions: 9-13 replicon cells, 48 hours with compound, second symbol of Replicon/Western
Experimental: Alternatively, the inhibitory activity of the compounds can be confirmed using a quantitative Western immunoblot assay utilizing antibodies specific for HCV non-structural proteins, such as NS3, NS4A NS5A and NS5B. In one embodiment of this assay, replicon cells are treated with varying concentrations of test compound to determine the concentration of test compound that yields a 50% reduction in the amount of a non-structural protein produced as compared to a control sample (IC50). A single non-structural protein may be quantified or multiple non-structural proteins may be quantified. Antibodies suitable for carrying out such immunoblot assays are available commercially (e.g., from BIODESIGN International, Saco, Me.).
Certain exemplary compounds of the invention were also tested for their ability to inhibit HCV replication using a quantitative Western blot analysis with antibodies specific for the HCV nonstructural protein NS5A. Actively dividing 9-13 replicon cells were seeded into 6-well plates at a density of 1×10^5 cells/well in a volume of 2 ml/well and incubated at 37° C. and 5% CO2 for 24 hours. Various concentrations of test compounds (in a volume of 10 ul) were added to the wells and the cells incubated for another 48 hours. Protein samples were prepared from the cultured cells, resolved on a SDS-PAGE gel and transferred to a nitrocellulose membrane. The membrane was blocked with 5% non-fat milk in PBS for 1 hour at room temperature. Primary antibody (anti NS5A antibody; BIODESIGN International, Saco, Me.) incubation was performed for 1 hour at room temperature, after which the membrane was washed 3 times (for 15 min per time) with PBST (PBS plus 0.1% Tween 20). Horseradish peroxidase conjugated secondary antibody incubation was performed for 1 hour at room temperature and the membrane was washed 3 times (for 15 min per time) with PBST. The membrane was then soaked in substrate solution (Pierce) and exposed to a film or quantified using an imager. In this assay, the amount of test compound that yielded a 50% reduction in the amount of NS5A protein translated as compared to a control sample (IC50) was determined.

Row | SMILES | IC50 (HCV replicon) [µM] | IC50 [1] [µM]
1 | CSc1cccc(F)c1-c1cc(-c2cccc(NC(=O)C(Cl)Cl)c2)on1 [Compound 11, 2,2-Dichloro-N-[3-[3-(2-fluoro-6-thiomethylphenyl)-5-isoxazolyl]phenyl] Acetamide] | ≤ 10 | ≤ 10
2 | O=C(Nc1cccc(-c2cc(-c3c(Cl)cccc3Cl)on2)c1)C(Cl)Cl [Compound 5, 2,2-Dichloro-N-[3-[5-(2,6-dichlorophenyl)-3-isoxazolyl]phenyl] Acetamide] | ≤ 10 | ≤ 10
3 | Cc1ccc(F)c(-c2cc(-c3cccc(NC(=O)C(Cl)Cl)c3)on2)c1Cl [Compound 15, 2,2-Dichloro-N-[3-[3-(2-chloro-6-fluoro-3-methylphenyl)-5-isoxazolyl]phenyl] Acetamide] | ≤ 10 | ≤ 10
4 | O=C(Nc1cccc(-c2cc(-c3c(Cl)cc(OCCN4CCCCC4)cc3Cl)no2)c1)C(Cl)Cl [Compound 125, 2,2-Dichloro-N-[3-[3-[2,6-dichloro-4-(N-piperidinylethylenoxy)phenyl]-5-isoxazolyl]-phenyl] Acetamide] | ≤ 10 | –
5 | O=C(Nc1cccc(-c2cc(-c3c(Cl)cccc3C3CC3)no2)c1)C(Cl)Cl [Compound 79, 2,2-Dichloro-N-[3-[3-(2-chloro-6-cyclopropylphenyl)-5-isoxazolyl]phenyl] Acetamide] | ≤ 10 | –
6 | O=C(O)c1ccc(Cl)c(-c2cc(-c3cccc(NC(=O)C(Cl)Cl)c3)on2)c1Cl [Compound 139, 2,2-Dichloro-N-[3-[3-(3-carboxy-2,6-dichlorophenyl)-5-isoxazolyl]phenyl] Acetamide] | > 10 | –
7 | CC(C)c1cccc(C(F)(F)F)c1-c1cc(-c2cccc(NC(=O)C(Cl)Cl)c2)on1 [Compound 93, 2,2-Dichloro-N-[3-[3-(2-isopropyl-6-trifluoromethylphenyl)-5-isoxazolyl]phenyl] Acetamide] | ≤ 10 | –
8 | CN1CCN(c2cccc(Cl)c2-c2cc(-c3cccc(NC(=O)C(Cl)Cl)c3)on2)CC1 [Compound 99, 2,2-Dichloro-N-[3-[3-[2-chloro-6-(4-methylpiperazino)phenyl]-5-isoxazolyl]phenyl] Acetamide] | ≤ 10 | –
9 | O=C(Nc1cccc(-c2cc(-c3c(Cl)cc(OCCCN4CCOCC4)cc3Cl)no2)c1)C(Cl)Cl [Compound 73, 2,2-Dichloro-N-[3-[3-[2,6-dichloro-4-(N-morpholinopropyleneoxy)phenyl]-5-isoxazolyl]-phenyl] Acetamide] | ≤ 10 | –
10 | CCOC(=O)C1CCN(c2cccc(Cl)c2-c2cc(-c3cccc(NC(=O)C(Cl)Cl)c3)on2)CC1 [Compound 151, 2,2-Dichloro-N-[3-[3-[2-chloro-6-(4-carboethoxypiperidino)phenyl]-5-isoxazolyl]-phenyl] Acetamide] | > 10 | –
11 | O=C(Nc1cccc(-c2cc(-c3c(Cl)cccc3Cl)no2)c1)C(Br)Br [Compound 29, 2,2-Dibromo-N-[3-[3-(2,6-dichlorophenyl)-5-isoxazolyl]phenyl] Acetamide] | ≤ 10 | –
12 | O=C(Nc1cccc(-c2cc(-c3ccccc3OC(F)(F)F)no2)c1)C(Cl)Cl [Compound 113, 2,2-Dichloro-N-[3-[3-(2-trifluoromethoxyphenyl)-5-isoxazolyl]phenyl] Acetamide] | ≤ 10 | –
13 | CS(=O)(=O)c1cccc(F)c1-c1cc(-c2cccc(NC(=O)C(Cl)Cl)c2)on1 [Compound 153, 2,2-Dichloro-N-[3-[3-(2-fluoro-6-methylsulfonyl)phenyl-5-isoxazolyl]phenyl] Acetamide] | > 10 | –
14 | CN1CCN(c2cccc(C(F)(F)F)c2-c2cc(-c3cccc(NC(=O)C(Cl)Cl)c3)on2)CC1 [Compound 109, 2,2-Dichloro-N-[3-[3-[2-trifluoromethyl-6-(4-methylpiperazino)phenyl]-5-isoxazolyl]-phenyl] Acetamide] | ≤ 10 | –
15 | O=C(Nc1ccc(S(=O)(=O)NN2CCOCC2)c(-c2cc(-c3c(Cl)cccc3Cl)no2)c1)C(Cl)Cl [Compound 107, 2,2-Dichloro-N-[3-[3-(2,6-dichlorophenyl)-5-isoxazolyl]-4-(N-morpholinosulfamoyl)-phenyl] Acetamide] | ≤ 10 | –
16 | O=C(Nc1cccc(-c2cc(-c3cc(C(F)(F)F)ccc3Cl)no2)c1)C(Cl)Cl [Compound 141, 2,2-Dichloro-N-[3-[3-(2-chloro-5-trifluoromethylphenyl)-5-isoxazolyl]phenyl] Acetamide] | > 10 | –
17 | CCOc1ccccc1-c1cc(-c2cccc(NC(=O)C(Cl)Cl)c2)on1 [Compound 61, 2,2-Dichloro-N-[3-[3-(2-ethoxyphenyl)-5-isoxazolyl]phenyl] Acetamide] | ≤ 10 | –
18 | Cc1ccc(F)c(-c2cc(-c3cccc(NC(=O)C(Cl)Cl)c3)on2)c1F [Compound 149, 2,2-Dichloro-N-[3-[3-(2,6-difluoro-3-methylphenyl)-5-isoxazolyl]phenyl] Acetamide] | > 10 | –
19 | O=C(O)c1ccccc1-c1cc(-c2cccc(NC(=O)C(Cl)Cl)c2)on1 [Compound 157, 2,2-Dichloro-N-[3-[3-(2-carboxyphenyl)-5-isoxazolyl]phenyl] Acetamide] | > 10 | –
20 | Cc1cccc(C(F)(F)F)c1-c1cc(-c2cccc(NC(=O)C(Cl)Cl)c2)on1 [Compound 85, 2,2-Dichloro-N-[3-[3-(2-methyl-6-trifluoromethylphenyl)-5-isoxazolyl]phenyl] Acetamide] | ≤ 10 | –
21 | O=C(Nc1cccc(-c2cc(-c3c(Cl)cccc3Cl)no2)c1)C(F)F [Compound 145, 2,2-Difluoro-N-[3-[3-(2,6-dichlorophenyl)-5-isoxazolyl]phenyl] Acetamide] | > 10 | –
22 | O=C(Nc1cccc(-c2cc(-c3c(F)ccc(F)c3Cl)no2)c1)C(Cl)Cl [Compound 53, 2,2-Dichloro-N-[3-[3-(2-chloro-3,6-difluorophenyl)-5-isoxazolyl]phenyl] Acetamide] | ≤ 10 | –
23 | CN(C)C1CCN(c2cccc(Cl)c2-c2cc(-c3cccc(NC(=O)C(Cl)Cl)c3)on2)C1 (racemic) [Compound 132, (±)-2,2-Dichloro-N-[3-[3-[2-chloro-6-(3-dimethylamino-N-pyrrolidino)phenyl]-5-isoxazolyl]-phenyl] Acetamide] | ≤ 10 | –
24 | Cc1cccc(Cl)c1-c1cc(-c2cccc(NC(=O)C(Cl)Cl)c2)on1 [Compound 31, 2,2-Dichloro-N-[3-[3-(2-chloro-6-methylphenyl)-5-isoxazolyl]phenyl] Acetamide] | ≤ 10 | –
25 | CC(C)c1cccc(C(C)C)c1-c1cc(-c2cccc(NC(=O)C(Cl)Cl)c2)on1 [Compound 121, 2,2-Dichloro-N-[3-[3-(2,6-diisopropylphenyl)-5-isoxazolyl]phenyl] Acetamide] | ≤ 10 | –
26 | CN(C(=O)C(Cl)Cl)c1cccc(-c2cc(-c3c(Cl)cccc3Cl)no2)c1 [Compound 57, 2,2-Dicbloro-N-[3-[3-(2,6-dichlorophenyl)-5-isoxazolyl]phenyl]-N-methyl Acetamide] | ≤ 10 | –
27 | O=C(Nc1cccc(-c2cc(-c3c(Cl)cccc3-n3ccnc3)no2)c1)C(Cl)Cl [Compound 117, 2,2-Dichloro-N-[3-[3-[2-chloro-6-(N-imidazolyl)phenyl]-5-isoxazolyl]phenyl] Acetamide] | ≤ 10 | –
28 | CN(C)c1cc(Cl)c(-c2cc(-c3cccc(NC(=O)C(Cl)Cl)c3)on2)c(Cl)c1 [Compound 65, 2,2-Dichloro-N-[3-[3-(2,6-dichloro-4-dimethylaminophenyl)-5-isoxazolyl]phenyl] Acetamide] | ≤ 10 | –
29 | O=C(Nc1cccc(-c2cc(-c3c(Cl)cccc3OCCN3CCOCC3)no2)c1)C(Cl)Cl [Compound 95, 2,2-Dichloro-N-[3-[3-[2-chloro-6-(N-morpholino-2-ethyleneoxy)phenyl]-5-isoxazolyl]-phenyl] Acetamide] | ≤ 10 | –

Reference: patent US6759538B2, “Substituted diphenyl heterocycles useful for treating HCV infection” (priority 2001, dated 2004)
